Measured values from US20250223259A1, “PROTEASE INHIBITORS FOR TREATING OR PREVENTING CORONAVIRUS INFECTION” (Merck Sharp & Dohme LLC, priority 2022, published 2025).

Target: SARS2 coronavirus 3CL protease (Severe acute respiratory syndrome coronavirus 2 (2019-nCoV) (SARS-CoV-2), UniProt P0DTD1)
Assay: SARS2 Coronavirus 3CL Protease Assay (FRET)
Type: biochemical
Conditions: SARS2 3CLPro FRET assay; 5 nM enzyme, 30 min pre-incubation with compound, 15 uM peptide substrate, 4 h room temperature
Description: The enzymatic activity of SARS2 coronavirus 3CL protease was determined in a FRET (fluorescence resonance energy transfer)-based assay measuring the cleavage of a peptide substrate by recombinantly expressed and purified enzyme. Cleavage of the peptide SEQ ID NO:1 (CPC Scientific) by SARS2 3CL protease was measured in reaction buffer (50 mM Hepes pH 7.5, 0.01% Triton X-100, 0.01% BSA, 2 mM DTT). SARS2 3CL protease (5 nM final concentration) was pre-incubated with compound for 30 minutes before reaction initiation with peptide substrate (15 uM final concentration). Room temperature reactions (4 h) were quenched by addition of a high dose of inhibitor and read on an appropriate plate reader (excitation wavelength=495 nm, emission wavelength=520 nm). Data were analyzed by a standard 4 parameter fit to determine IC50 values.

For CNC(=O)C(=O)[C@H](CCC(C)(F)F)NC(=O)[C@@H]1CC2(CCCCC2)CN1C(=O)[C@@H](NC(=O)OC)C(C)(C)C [Example 62, Methyl ((S)-1-((S)-3-(((S)-6,6-difluoro-1-(methylamino)-1,2-dioxoheptan-3-yl)carbamoyl)-2-azaspiro[4.5]decan-2-yl)-3,3-dimethyl-1-oxobutan-2-yl)carbamate], the IC50 was 8.8 nM.

For COC(=O)N[C@H](C(=O)N1C[C@H]2[C@@H]([C@H]1C(=O)N[C@@H](CCC(C)(F)F)C(=O)C(=O)NC1CC1)C2(F)F)C(C)(C)C [Example 111, methyl ((S)-1-((1S,2S,5R)-2-(((S)-1-(cyclopropylamino)-6,6-difluoro-1,2-dioxoheptan-3-yl)carbamoyl)-6,6-difluoro-3-azabicyclo[3.1.0]hexan-3-yl)-3,3-dimethyl-1-oxobutan-2-yl)carbamate], the IC50 was 88 nM.

Work on CNC(=O)C(=O)[C@H](CCC(C)(F)F)NC(=O)[C@@H]1CC(F)(F)[C@@H](C)CN1C(=O)[C@@H](NC(=O)OC)C(C)(C)C [Example 91, methyl ((S)-1-((2S,5S)-2-(((S)-6,6-difluoro-1-(methylamino)-1,2-dioxoheptan-3-yl)carbamoyl)-4,4-difluoro-5-methylpiperidin-1-yl)-3,3-dimethyl-1-oxobutan-2-yl)carbamate] yielded an IC50 of 19 nM.

With [2H]C([2H])([2H])NC(=O)C(=O)[C@H](CCC(C)(F)F)NC(=O)C1CC(C(F)(F)F)CCN1C(=O)[C@@H](NC(=O)OC([2H])([2H])[2H])C(C)(C)C (single isomer, unassigned) [Example 100, methyl-d3 ((S)-1-((2(S or R),4(S or R))-2-(((S)-6,6-difluoro-1-((methyl-d3)amino)-1,2-dioxoheptan-3-yl)carbamoyl)-4-(trifluoromethyl)piperidin-1-yl)-3,3-dimethyl-1-oxobutan-2-yl)carbamate] the IC50 was 14 nM.

COC(=O)N[C@H](C(=O)N1CCC2(CC2)C[C@H]1C(=O)N[C@@H](CCC(C)(F)F)C(=O)C(=O)NC1CC1)C(C)(C)C [Example 29, Methyl ((S)-1-((S)-5-(((S)-1-(cyclopropylamino)-6,6-difluoro-1,2-dioxoheptan-3-yl)carbamoyl)-6-azaspiro[2.5]octan-6-yl)-3,3-dimethyl-1-oxobutan-2-yl)carbamate] showed an IC50 of 7.7 nM.

For COC(=O)N[C@H](C(=O)N1CCC(C)(C)CC1C(=O)N[C@@H](CCC(C)(F)F)C(=O)C(=O)NC1CC1)C(C)(C)C (single isomer, unassigned) [Example 37, Methyl ((S)-1-((R or S)-(2-(((S)-1-(cyclopropylamino)-6,6-difluoro-1,2-dioxoheptan-3-yl)carbamoyl)-4,4-dimethylpiperidin-1-yl)-3,3-dimethyl-1-oxobutan-2-yl)carbamate], the IC50 was 9.2 nM.

Compound COC(=O)N[C@H](C(=O)N1CC(C23CC(C2)C3)C[C@H]1C(=O)N[C@@H](CCC(C)(F)F)C(=O)C(=O)NC1CC1)C(C)(C)C (single isomer, unassigned) [Example 2, Methyl ((S)-1-((2S,4(R or S))-4-(bicyclo[1.1.1]pentan-1-yl)-2-(((S)-1-(cyclopropylamino)-6,6-difluoro-1,2-dioxoheptan-3-yl)carbamoyl)pyrrolidin-1-yl)-3,3-dimethyl-1-oxobutan-2-yl)carbamate] has an IC50 of 29 nM.

CNC(=O)C(=O)[C@H](CCC(C)(F)F)NC(=O)[C@@H]1C[C@@H](C(F)(F)F)CN1C(=O)[C@@H](NC(=O)OC)C(C)(C)C [Example 27, Methyl ((S)-1-((2S,4R)-2-(((S)-6,6-difluoro-1-(methylamino)-1,2-dioxoheptan-3-yl)carbamoyl)-4-(trifluoromethyl)pyrrolidin-1-yl)-3,3-dimethyl-1-oxobutan-2-yl)carbamate] gave an IC50 of 14 nM.

For COC(=O)N[C@H](C(=O)N1C(C(=O)N[C@@H](CCC(C)(F)F)C(=O)C(=O)NC2CC2)[C@H]2CC[C@@H]1C2)C(C)(C)C (single isomer, unassigned) [Example 77, Methyl ((S)-1-((1R, 3(R or S),4S)-3-(((S)-1-(cyclopropylamino)-6,6-difluoro-1,2-dioxoheptan-3-yl)carbamoyl)-2-azabicyclo[2.2.1]heptan-2-yl)-3,3-dimethyl-1-oxobutan-2-yl)carbamate], the IC50 was 133 nM.

With COC(=O)NC1(C(=O)N2CC3(CCCCC3)C[C@H]2C(=O)N[C@@H](CCC(C)(F)F)C(=O)C(=O)NC2CC2)CC1 [Example 19, Methyl (1-((S)-3-(((S)-1-(cyclopropylamino)-6,6-difluoro-1,2-dioxoheptan-3-yl)carbamoyl)-2-azaspiro[4.5]decane-2-carbonyl)cyclopropyl) carbamate] the IC50 was 497 nM.

With COC(=O)N[C@H](C(=O)N1CCC(C)C1C(=O)N[C@@H](CCC(C)(F)F)C(=O)C(=O)NC1CC1)C(C)(C)C (single isomer, unassigned) [Example 51, Methyl ((S)-1-((2(R or S),3(R or S))-2-(((S)-1-(cyclopropylamino)-6,6-difluoro-1,2-dioxoheptan-3-yl)carbamoyl)-3-methylpyrrolidin-1-yl)-3,3-dimethyl-1-oxobutan-2-yl)carbamate] the IC50 was 97 nM.

In the case of CNC(=O)C(=O)[C@H](CCC(C)(F)F)NC(=O)C1CC2(CCC2)CN1C(=O)[C@@H](NC(=O)OC)C(C)(C)C (single isomer, unassigned) [Example 44, Methyl ((S)-1-((R or S)-7-(((S)-6,6-difluoro-1-(methylamino)-1,2-dioxoheptan-3-yl)carbamoyl)-6-azaspiro[3.4]octan-6-yl)-3,3-dimethyl-1-oxobutan-2-yl)carbamate], the IC50 is reported as 27 nM.

Compound COC(=O)N[C@H](C(=O)N1CC(C2CCC2)C[C@H]1C(=O)N[C@@H](CCC(C)(F)F)C(=O)C(=O)NC1CC1)C(C)(C)C (single isomer, unassigned) [Example 1, Methyl ((S)-1-((2S,4(S or R))-4-cyclobutyl-2-(((S)-1-(cyclopropylamino)-6,6-difluoro-1,2-dioxoheptan-3-yl)carbamoyl)pyrrolidin-1-yl)-3,3-dimethyl-1-oxobutan-2-yl)carbamate] has an IC50 of 28 nM.

With CC(C)OC(=O)N[C@H](C(=O)N1CC2(CCCCC2)C[C@H]1C(=O)N[C@@H](CCC(C)(F)F)C(=O)C(=O)NC1CC1)C1CCCCC1 [Example 50, Isopropyl ((S)-1-cyclohexyl-2-((S)-3-(((S)-1-(cyclopropylamino)-6,6-difluoro-1,2-dioxoheptan-3-yl)carbamoyl)-2-azaspiro[4.5]decan-2-yl)-2-oxoethyl)carbamate] the IC50 was 62 nM.

COC(=O)N[C@H](C(=O)N1CCC2CC2[C@H]1C(=O)N[C@@H](CCC(C)(F)F)C(=O)C(=O)NC1CC1)C(C)(C)C (single isomer, unassigned) [Example 83, methyl ((S)-1-((1R,2S,6R or 1R,2S,6S)-2-(((S)-1-(cyclopropylamino)-6,6-difluoro-1,2-dioxoheptan-3-yl)carbamoyl)-3-azabicyclo[4.1.0]heptan-3-yl)-3,3-dimethyl-1-oxobutan-2-yl)carbamate] showed an IC50 of 83 nM.

With COC(=O)N[C@H](C(=O)N1CC2(CCCCC2)C[C@H]1C(=O)N[C@@H](CCC(C)(F)F)C(=O)C(=O)NC(C)(C)C)C(C)(C)C [Example 18, Methyl ((S)-1-((S)-3-(((S)-1-(tert-butylamino)-6,6-difluoro-1,2-dioxoheptan-3-yl)carbamoyl)-2-azaspiro[4.5]decan-2-yl)-3,3-dimethyl-1-oxobutan-2-yl)carbamate] the IC50 was 42 nM.

With COC(=O)N[C@H](C(=O)N1C[C@H]2[C@H](CCC2(F)F)[C@H]1C(=O)N[C@@H](CCC(C)(F)F)C(=O)C(=O)NC1CC1)C(C)(C)C [Example 33, Methyl ((S)-1-((1S,3aR,6aS)-1-(((S)-1-(cyclopropylamino)-6,6-difluoro-1,2-dioxoheptan-3-yl)carbamoyl)-4,4-difluorohexahydrocyclopenta[c]pyrrol-2(1H)-yl)-3,3-dimethyl-1-oxobutan-2-yl)carbamate] the IC50 was 9.7 nM.

In the case of COC(=O)N[C@H](C(=O)N1C[C@H](OC(F)(F)F)C[C@H]1C(=O)N[C@@H](CCC(C)(F)F)C(=O)C(=O)NC1CC1)C(C)(C)C [Example 70, Methyl ((S)-1-((2S,4R)-2-(((S)-1-(cyclopropylamino)-6,6-difluoro-1,2-dioxoheptan-3-yl)carbamoyl)-4-(trifluoromethoxy)pyrrolidin-1-yl)-3,3-dimethyl-1-oxobutan-2-yl)carbamate], the IC50 is reported as 36 nM.

With COC(=O)NC(C(=O)N1CC2(CCCCC2)C[C@H]1C(=O)N[C@@H](CCC(C)(F)F)C(=O)C(=O)NC1CC1)C1CCC1 (single isomer, unassigned) [Example 63, Methyl ((R or S)-1-cyclobutyl-2-((S)-3-(((S)-1-(cyclopropylamino)-6,6-difluoro-1,2-dioxoheptan-3-yl)carbamoyl)-2-azaspiro[4.5]decan-2-yl)-2-oxoethyl)carbamate] the IC50 was 32 nM.

With COC(=O)N[C@H](C(=O)N1C[C@H](C(F)(F)F)C[C@H]1C(=O)N[C@@H](CCC(C)(F)F)C(=O)C(=O)NC1CC1)C(C)(C)C [Example 67, Methyl ((S)-1-((2S,4R)-2-(((S)-1-(cyclopropylamino)-6,6-difluoro-1,2-dioxoheptan-3-yl)carbamoyl)-4-(trifluoromethyl)pyrrolidin-1-yl)-3,3-dimethyl-1-oxobutan-2-yl)carbamate] the IC50 was 20 nM.

In the case of COC(=O)N[C@H](C(=O)N1CC2(CCCCC2)C[C@H]1C(=O)N[C@@H](CCC(C)(F)F)C(=O)C(=O)NCCN1CCOCC1)C(C)(C)C [Example 17, Methyl ((S)-1-((S)-3-(((S)-6,6-difluoro-1-((2-morpholinoethyl)amino)-1,2-dioxoheptan-3-yl)carbamoyl)-2-azaspiro[4.5]decan-2-yl)-3,3-dimethyl-1-oxobutan-2-yl)carbamate], the IC50 is reported as 137 nM.

COCC(NC(=O)OC)C(=O)N1CC2(CCCCC2)C[C@H]1C(=O)N[C@@H](CCC(C)(F)F)C(=O)C(=O)NC1CC1 (single isomer, unassigned) [Example 11, Methyl ((R or S)-1-((S)-3-(((S)-1-(cyclopropylamino)-6,6-difluoro-1,2-dioxoheptan-3-yl)carbamoyl)-2-azaspiro[4.5]decan-2-yl)-3-methoxy-1-oxopropan-2-yl)carbamate] gave an IC50 of 40 nM.
